The supplement of paper PMC5579334

What was measured:
HS-PSS [1] = experiment: relative IC50 (inflection point of fitted dose-response curve, CellTox-Green cytotoxicity, 72 h; top asymptote may be below 50%); higher = less potent
Summary of the method: (§1)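 MPNST cell lines and primary human Schwann cells were incubated 72 h at 37 °C in 384-well plates holding five 10-fold compound dilutions. CellTox-Green was added before seeding at a final 1:1000 dilution and reported fluorescence from DNA released by disrupted cells. Signals were scaled to vehicle and positive-control wells, and cultures failing plate quality control were dropped. Drug sensitivity score and relative IC50 come from four-parameter logistic fits, with IC50 censored at the top concentration.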

HSC1 [2] = experiment: as above
Summary of the method: as §1

HSC2 [3] = experiment: as above
Summary of the method: as §1

S1507-2 [4] = experiment: as above
Summary of the method: as §1

ST8814 [5] = experiment: as above
Summary of the method: as §1

STS26T [6] = experiment: as above
Summary of the method: as §1

HS-PSS [7] = experiment: relative IC50 (inflection point of fitted dose-response curve, CellTiter-Glo viability, 72 h; top asymptote may be below 50% inhibition); higher = less potent
Summary of the method: (§2)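 MPNST cell lines and primary human Schwann cells (750–1000 cells per well) went into 384-well plates preprinted with each compound at five concentrations in 10-fold steps. Plates were incubated 72 h at 37 °C, 5% CO2. Viability was read as CellTiter-Glo ATP luminescence, scaled between vehicle and positive-control wells, with duplicates averaged where present. Percent inhibition is at the top concentration; drug sensitivity score and relative IC50 (censored at top concentration) come from four-parameter logistic fits.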

HS-Sch-2 = experiment: as above
Summary of the method: as §2

HSC1 [8] = experiment: as above
Summary of the method: as §2

HSC2 [9] = experiment: as above
Summary of the method: as §2

S1507-2 [10] = experiment: as above
Summary of the method: as §2

S462 = experiment: as above
Summary of the method: as §2

ST8814 [11] = experiment: as above
Summary of the method: as §2

STS26T [12] = experiment: as above
Summary of the method: as §2

YST-1 = experiment: as above
Summary of the method: as §2

Compound | relative IC50 (HS-PSS [1]) [nM] | relative IC50 (HSC1 [2]) [nM] | relative IC50 (HSC2 [3]) [nM] | relative IC50 (S1507-2 [4]) [nM] | relative IC50 (ST8814 [5]) [nM] | relative IC50 (STS26T [6]) [nM] | relative IC50 (HS-PSS [7]) [nM] | relative IC50 (HS-Sch-2) [nM] | relative IC50 (HSC1 [8]) [nM] | relative IC50 (HSC2 [9]) [nM] | relative IC50 (S1507-2 [10]) [nM] | relative IC50 (S462) [nM] | relative IC50 (ST8814 [11]) [nM] | relative IC50 (STS26T [12]) [nM] | relative IC50 (YST-1) [nM]
O=NN(CCCl)C(=O)NC1CCCCC1 [Lomustine] | > 10000 | > 10000 | > 10000 | > 10000 | > 10000 | > 10000 | > 10000 | > 10000 | > 10000 | > 10000 | > 10000 | > 10000 | > 10000 | > 10000 | > 10000
CC(C)C[C@H](NC(=O)[C@H](CCc1ccccc1)NC(=O)CN1CCOCC1)C(=O)N[C@@H](Cc1ccccc1)C(=O)N[C@@H](CC(C)C)C(=O)[C@@]1(C)CO1 [Carfilzomib] | 25.1 | 24.6 | 23 | 25.7 | 12 | 8.79 | 11.7 | 2.75 | 11.5 | 9.67 | 17.2 | 4.5 | 8.99 | 8.28 | 4.71
O=C(/C=C/c1cccc(S(=O)(=O)Nc2ccccc2)c1)NO [Belinostat] | 1490 | 1770 | 1700 | 1190 | 800 | 415 | 924 | 610 | 459 | 704 | 364 | 762 | 321 | 718 | 259
CCN(CC)CCOc1ccc(/C(=C(/Cl)c2ccccc2)c2ccccc2)cc1 [Clomifene] | 2990 | > 10000 | 2030 | 3540 | 2560 | 2840 | 2290 | 3360 | 1140 | 2440 | 2470 | 2450 | 2540 | 2520 | 3930
CCC1(c2ccc(N)cc2)CCC(=O)NC1=O (stereo not given) [Aminoglutethimide] | > 10000 | > 10000 | > 10000 | > 10000 | > 10000 | > 10000 | > 10000 | > 10000 | > 10000 | > 10000 | > 10000 | > 10000 | > 10000 | > 10000 | > 10000
Nc1ncnc2c1nc(N)n2[C@@H]1O[C@H](CO)[C@@H](O)[C@H]1O [8-amino-adenosine] | 4130 | 6650 | 7010 | 2820 | 1730 | 1060 | 1620 | 1230 | 1360 | 2250 | 885 | 1080 | 1110 | 1100 | 647
